The target of this experiment is T1, cytoplasmic kinase domain of human IGF-1R (IGF-1R-GST) (Homo sapiens, UniProt P08069).
T1 construct: cytoplasmic kinase domain of human IGF-1R (amino acids 964-1370); GST (glutathione-S-transferase); made in house; host or cells: High Five insect cells (Invitrogen)
The experiment is described as follows: Insulin-like growth factor-1 receptor (IGF-1R) kinase assay (DELFIA). The experiment is classed as biochemical. Conditions: IGF-1R-GST kinase activity, read-out: IGF1R IC50. On the procedure: Insulin-Like Growth Factor-1 Receptor (IGF-1R)-Kinase Assay
The kinase activity is measured by DELFIA® assay (dissociation-enhanced lanthanide fluorescence immunoassay, Perkin Elmer). […] Enzyme activity is measured in the presence of substances and a control substance. Poly-glutamate-tyrosine peptide (pEY, Sigma Aldrich) and biotinylated pEY (bio-pEY) are used as reaction substrates.
After 40 min at RT the reactions are stopped with 50 μL of stop solution (250 mM EDTA, 20 mM HEPES pH 7.4). 90 μL from each reaction are transferred onto streptavidin-coated 96-well plates. After 120 min incubation at RT the plates are washed three times with 200 μL phosphate-buffered saline (PBS) per well. The plates are incubated for 60 min with 100 μL of europium-coupled antibody against phospho-tyrosine (diluted 1/2000 in Perkin Elmer DELFIA assay buffer) per well. The plates are washed three times with 200 μL per well of DELFIA washing buffer. 100 μL DELFIA Enhancement Solution (Perkin Elmer) is added to each well, and the plates are incubated for 10 min. The fluorescence signal is measured with a Wallac Victor TRF Reader. IC50 values for the inhibition of the IGF-1R-kinase activity are calculated using the programmes Fifty (Version 2) and GraphPad (Version 3.0).

Structures are written as SMILES.

In general, IC50 refers to the concentration at which inhibition is half-maximal.

T1 sequence (P08069 964-1367 limits assumed): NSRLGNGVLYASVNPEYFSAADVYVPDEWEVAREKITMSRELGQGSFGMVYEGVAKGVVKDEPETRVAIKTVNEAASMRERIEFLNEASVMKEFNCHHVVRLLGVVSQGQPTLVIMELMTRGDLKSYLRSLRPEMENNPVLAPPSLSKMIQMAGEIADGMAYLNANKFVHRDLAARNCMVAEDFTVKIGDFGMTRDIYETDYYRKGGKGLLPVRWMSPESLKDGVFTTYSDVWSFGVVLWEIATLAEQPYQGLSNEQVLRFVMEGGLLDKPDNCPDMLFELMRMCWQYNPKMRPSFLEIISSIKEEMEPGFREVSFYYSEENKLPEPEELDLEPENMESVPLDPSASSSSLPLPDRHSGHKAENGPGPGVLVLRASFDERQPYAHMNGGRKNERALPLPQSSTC

Turning to `CCN1CCN(c2ccc(Nc3ncc(Cl)c(NCc4cccc5c4C(C)(C)C(=O)N5)n3)c(OC)c2)CC1` [Example I-99], the IC50 stood at 2 nM.
`COc1cc(C2CCN(C)CC2)ccc1Nc1ncc(Cl)c(NCc2cccc3c2C(C)(C)C(=O)N3)n1` [Example I-100]: the IC50 amounted to 2 nM.
For `COc1cc(N2CCN(CC3CC3)CC2)ccc1Nc1ncc(Cl)c(NCc2cccc3c2C(C)(C)C(=O)N3)n1` [Example I-101], the IC50 came out at 2 nM.
Turning to `COc1cc(N2CCN(C3CCOCC3)[C@H](C)C2)ccc1Nc1ncc(C(F)(F)F)c(NCc2cccc3c2C(C)(C)C(=O)N3)n1` [Example I-105], the IC50 came out at 2 nM.
As to `COc1cc(N2CCN(C(C)C)[C@H](C)C2)ccc1Nc1ncc(C(F)(F)F)c(NCc2cccc3c2C(C)(C)C(=O)N3)n1` [Example I-106], the IC50 came out at 0.08 nM.
The same measure for `CCN1CCN(c2ccc(Nc3ncc(C(F)(F)F)c(NCc4cccc5c4C(C)(C)C(=O)N5)n3)c(OC)c2)C[C@H]1C` [Example I-107]: 0.62 nM.
The same measure for `COc1cc(N2CCN(C)[C@H](C)C2)ccc1Nc1ncc(C(F)(F)F)c(NCc2cccc3c2C(C)(C)C(=O)N3)n1` [Example I-108]: 0.93 nM.
On to `COc1cc(N2CCN(C3CCC3)[C@H](C)C2)ccc1Nc1ncc(C(F)(F)F)c(NCc2cccc3c2C(C)(C)C(=O)N3)n1` [Example I-109], for which the IC50 stood at 0.87 nM.
Turning to `COc1cc(N2CCN(C3CCN(C(C)=O)CC3)CC2)ccc1Nc1ncc(C(F)(F)F)c(NCc2cccc3c2CC(=O)N3)n1` [Example I-110], the IC50 came to 8 nM.
For the molecule `COc1cc(N2CCN(C3CCN(C(C)C)CC3)CC2)ccc1Nc1ncc(C(F)(F)F)c(NCc2cccc3c2CC(=O)N3)n1` [Example I-111], the IC50 was 18 nM.
For the molecule `COc1cc(N2CCN(C3CCN(C4CC4)CC3)CC2)ccc1Nc1ncc(C(F)(F)F)c(NCc2cccc3c2CC(=O)N3)n1` [Example I-112], the IC50 was 5 nM.
On to `COc1cc(N2CCN(C3CCN(CC#N)CC3)CC2)ccc1Nc1ncc(C(F)(F)F)c(NCc2cccc3c2CC(=O)N3)n1` [Example I-113], for which the IC50 was 3 nM.
The value for `CCN1CCC(N2CCN(c3ccc(Nc4ncc(C(F)(F)F)c(NCc5cccc6c5CC(=O)N6)n4)c(OC)c3)CC2)CC1` [Example I-114] was 4 nM; that for `COc1cc(N2CCN(C3CCN(C4CCOCC4)CC3)CC2)ccc1Nc1ncc(C(F)(F)F)c(NCc2cccc3c2CC(=O)N3)n1` [Example I-115] was 10 nM.
Consider `COc1cc(N2CCN(C(C)C)CC2)ccc1Nc1ncc(C(F)(F)F)c(NCc2cccc3c2CC(=O)N3)n1` [Example I-116], for which the IC50 was 10 nM.
Consider `COc1cc(N2CCN(C3CCN(C)CC3)CC2)ccc1Nc1ncc(C(F)(F)F)c(NCc2cccc3c2CC(=O)N3)n1` [Example I-117], for which the half-maximal inhibitory concentration (IC50) was 9 nM.
In the case of `COc1cc(N2CCN(C3CCOCC3)CC2)ccc1Nc1ncc(C(F)(F)F)c(NCc2cccc3c2CC(=O)N3)n1` [Example I-118], the IC50 worked out at 11 nM.
With `COc1cc(N2CCN(C)CC2)ccc1Nc1ncc(C(F)(F)F)c(NCc2cccc3c2CC(=O)N3)n1` [Example I-119], the IC50 was 11 nM.
Consider `COc1cc(N2CCN(Cc3ccncc3)CC2)ccc1Nc1ncc(C(F)(F)F)c(NCc2cccc3c2CC(=O)N3)n1` [Example I-120], for which the IC50 was determined as 49 nM.
`COc1cc(N2CCN(C3CCN(CCO)CC3)CC2)ccc1Nc1ncc(C(F)(F)F)c(NCc2cccc3c2CC(=O)N3)n1` [Example I-121]: the IC50 is 16 nM.
Consider `COCCN1CCC(N2CCN(c3ccc(Nc4ncc(C(F)(F)F)c(NCc5cccc6c5CC(=O)N6)n4)c(OC)c3)CC2)CC1` [Example I-122], for which the IC50 worked out at 15 nM.
Consider `COc1cc(N2CCN(C3CCN(C(=O)N(C)C)CC3)CC2)ccc1Nc1ncc(C(F)(F)F)c(NCc2cccc3c2CC(=O)N3)n1` [Example I-123], for which the IC50 amounted to 12 nM.
With `COc1cc(N2CCN(C3CCN(S(=O)(=O)N(C)C)CC3)CC2)ccc1Nc1ncc(C(F)(F)F)c(NCc2cccc3c2CC(=O)N3)n1` [Example I-124], the IC50 worked out at 12 nM.
Consider `COc1cc(N2CCN(C3CCN(S(C)(=O)=O)CC3)CC2)ccc1Nc1ncc(C(F)(F)F)c(NCc2cccc3c2CC(=O)N3)n1` [Example I-125], for which the IC50 turned out to be 15 nM.
Regarding `COc1cc(N2CCN(C3CCOCC3)CC2)ccc1Nc1ncc(C(F)(F)F)c(NCc2cccc3c2C(C)(C)C(=O)N3C)n1` [Example I-126], the IC50 was 3 nM.
In the case of `COc1cc(N2CCN(C)CC2)ccc1Nc1ncc(C(F)(F)F)c(NCc2cccc3c2C(C)(C)C(=O)N3C)n1` [Example I-127], the IC50 amounted to 3 nM.
As for `COc1cc(N2CCN(C(C)C)CC2)ccc1Nc1ncc(C(F)(F)F)c(NCc2cccc3c2C(C)(C)C(=O)N3C)n1` [Example I-128], the IC50 was 2 nM.
On to `CCN1CCN(c2ccc(Nc3ncc(C(F)(F)F)c(NCc4cccc5c4C(C)(C)C(=O)N5C)n3)c(OC)c2)CC1` [Example I-129], for which the IC50 came to 2 nM.
As to `COc1cc(N2CCN(C3CCN(C)CC3)CC2)ccc1Nc1ncc(C(F)(F)F)c(NCc2cccc3c2C(C)(C)C(=O)N3C)n1` [Example I-130], the IC50 worked out at 2 nM.
As to `COc1cc(N2CCN(CC3CC3)[C@H](C)C2)ccc1Nc1ncc(C(F)(F)F)c(NCc2cccc3c2C(C)(C)C(=O)N3)n1` [Example I-131], the IC50 came out at 0.33 nM.
On to `COc1cc(N2CCN(C3CCN(C)CC3)[C@H](C)C2)ccc1Nc1ncc(C(F)(F)F)c(NCc2cccc3c2C(C)(C)C(=O)N3)n1` [Example I-132], for which the IC50 is 0.6 nM.
For the molecule `CN1CCN(c2ccc(Nc3ncc(C(F)(F)F)c(NCc4cccc5c4C(C)(C)C(=O)N5)n3)cn2)CC1` [Example I-133], the IC50 worked out at 13 nM.
Turning to `CC(C)N1CCC(c2ccc(Nc3ncc(C(F)(F)F)c(NCc4cccc5c4C(C)(C)C(=O)N5)n3)cc2)CC1` [Example I-134], the IC50 came to 1 nM.
With `COc1cc(N2CCN(C3CCN(C)CC3)CC2)ccc1Nc1ncc(C(F)(F)F)c(NCc2cccc3c2C(C)(C)C(=O)N3)n1` [Example I-135], the IC50 stood at 0.57 nM.
The same measure for `COc1cc(N2CCN(C(C)C)CC2)ccc1Nc1ncc(C(F)(F)F)c(NCc2cccc3c2C(C)(C)C(=O)N3)n1` [Example I-136]: 2 nM; for `CCc1cc(Nc2ncc(C(F)(F)F)c(NCc3cccc4c3CC(=O)N4)n2)c(OC)cc1N1CCN(C(C)C)CC1` [Example I-137]: 65 nM.
Turning to `CCOc1cc(N2CCN(C)CC2)ccc1Nc1ncc(C(F)(F)F)c(NCc2cccc3c2CC(=O)N3)n1` [Example I-138], the IC50 worked out at 13 nM.
For the molecule `CCOc1cc(N2CCN(C(C)C)CC2)ccc1Nc1ncc(C(F)(F)F)c(NCc2cccc3c2CC(=O)N3)n1` [Example I-139], the IC50 is 8 nM.
For the molecule `CCOc1cc(N2CCN(CC)CC2)ccc1Nc1ncc(C(F)(F)F)c(NCc2cccc3c2CC(=O)N3)n1` [Example I-140], the IC50 stood at 11 nM.
For `CCOc1cc(N2CCN(C3COC3)CC2)ccc1Nc1ncc(C(F)(F)F)c(NCc2cccc3c2CC(=O)N3)n1` [Example I-141], the IC50 was 19 nM.
Take `CCOc1cc(N2CCN(C)CC2)ccc1Nc1ncc(C(F)(F)F)c(NCc2cccc3c2C(C)(C)C(=O)N3)n1` [Example I-142]: the concentration for half-maximal inhibition (IC50) was found to be 0.55 nM.
Regarding `CCOc1cc(N2CCN(C(C)C)CC2)ccc1Nc1ncc(C(F)(F)F)c(NCc2cccc3c2C(C)(C)C(=O)N3)n1` [Example I-143], the IC50 was found to be 1 nM.
The same measure for `CCOc1cc(N2CCN(CC)CC2)ccc1Nc1ncc(C(F)(F)F)c(NCc2cccc3c2C(C)(C)C(=O)N3)n1` [Example I-144]: 0.81 nM; for `CCOc1cc(N2CCN(C3CCN(C)CC3)CC2)ccc1Nc1ncc(C(F)(F)F)c(NCc2cccc3c2C(C)(C)C(=O)N3)n1` [Example I-145]: 0.67 nM; for `CCOc1cc(N2CCN(C3COC3)CC2)ccc1Nc1ncc(C(F)(F)F)c(NCc2cccc3c2C(C)(C)C(=O)N3)n1` [Example I-146]: 4 nM.
As for `COc1cc(N2CC3CC2CN3C2CCN(C)CC2)ccc1Nc1ncc(C(F)(F)F)c(NCc2cccc3c2C(C)(C)C(=O)N3)n1` (centres unmarked) [Example I-147], the IC50 turned out to be 5 nM.
`COc1cc(N2CC3CC2CN3C2CCC2)ccc1Nc1ncc(C(F)(F)F)c(NCc2cccc3c2C(C)(C)C(=O)N3)n1` (centres unmarked) [Example I-148]: the IC50 is 3 nM.
For the molecule `COc1cc(N2CC3CC2CN3CC2CC2)ccc1Nc1ncc(C(F)(F)F)c(NCc2cccc3c2C(C)(C)C(=O)N3)n1` (centres unmarked) [Example I-149], the IC50 is 2 nM.
Regarding `COc1cc(N2CC3CC2CN3C2CCOCC2)ccc1Nc1ncc(C(F)(F)F)c(NCc2cccc3c2C(C)(C)C(=O)N3)n1` (centres unmarked) [Example I-150], the IC50 was found to be 3 nM.
`COc1cc(N2CC3CC2CN3C)ccc1Nc1ncc(C(F)(F)F)c(NCc2cccc3c2C(C)(C)C(=O)N3)n1` (centres unmarked) [Example I-151]: the IC50 is 2 nM.
The value for `COc1cc(N2CC3CC2CN3C(C)C)ccc1Nc1ncc(C(F)(F)F)c(NCc2cccc3c2C(C)(C)C(=O)N3)n1` (centres unmarked) [Example I-152] was 3 nM; that for `CCN1CC2CC1CN2c1ccc(Nc2ncc(C(F)(F)F)c(NCc3cccc4c3C(C)(C)C(=O)N4)n2)c(OC)c1` (centres unmarked) [Example I-153] was 2 nM; that for `COc1cc(N2CC3CC2CN3C2COC2)ccc1Nc1ncc(C(F)(F)F)c(NCc2cccc3c2C(C)(C)C(=O)N3)n1` (centres unmarked) [Example I-154] was 13 nM.

The values are drawn from patent US8546443B2, “Benzylic oxindole pyrimidines” (Boehringer Ingelheim International GmbH, priority 2010, dated 2013).
